In patent EP2812315B1, “PYRROLIC DERIVATIVES, PROCESSES FOR PREPARING THE SAME AND THEIR USES AS A DRUG” (Universite Joseph Fourier, priority 2012, dated 2013):
Converted amounts (≈) assume the structure as drawn.

Experiments:
Type in all cases: cell-based
[1] = test system: Staphylococcus aureus ATCC 106414 (VISA); experiment: MIC determination, microdilution method (CLSI M07-A8); conditions: 5 x 10^5 CFU/mL, 18 hours incubation
Procedure: (§1) The microdilution method recommended by the Clinical and Laboratory Standard Institute [M07-A8, Vol.29, N°2] was used. The activity of pyrrolic compounds was tested against 29 bacterial strains belonging to 17 different species and 12 different genera (Staphylococcus, Streptococcus, Enterococcus, […], Bacillus, Haetttophilus, Escherichia, Klebsiella, Enterobacter, Serratia, Pseudomonas, and Acinetobacter). Bacterial inocula were prepared in Mueller Hinton broth (MH2, bioMérieux, Marcy L'Etoile, France), supplemented with 10% sheep blood for fastidious species (i.e., Streptococcus pneumoniae and Haemophilus influenzae). They were dispensed in 96 well microtiter plates (5 x 10^5 CFU/mL of final inoculum). Pyrrolic compounds were added to the wells as to obtain two-fold serial concentrations (0.25-64 mg/L). Plates were incubated at 37°C, in 5% CO2 enriched atmosphere for fastidious species only. MICs were read after 18 hours incubation of cultures, and corresponded to the minimum pyrrolic compound concentration that allowed complete visual growth inhibition of bacteria. Drug-free cultures served as growth controls. Cultures receiving gentamicine, ciprofloxacine or cefotaxime served as positive controls.

[2] = test system: Staphylococcus aureus ATCC 33592 (MRSA); experiment: as above; conditions: 5 x 10^5 CFU/mL, 18 hours incubation
Procedure: as §1

[3] = test system: Staphylococcus aureus ATCC 6538; experiment: as above; conditions: ATCC6538, 5 x 10^5 CFU/mL, 18 hours incubation
Procedure: as §1

[4] = test system: Staphylococcus aureus ATCC 9144; experiment: as above; conditions: ATCC9144, 5 x 10^5 CFU/mL, 18 hours incubation
Procedure: as §1

[5] = test system: Staphylococcus aureus CIP 103428; experiment: as above; conditions: CIP103428, 5 x 10^5 CFU/mL, 18 hours incubation
Procedure: as §1

[6] = test system: Staphylococcus aureus CIP 65.25 (MRSA); experiment: as above; conditions: 5 x 10^5 CFU/mL, 18 hours incubation
Procedure: as §1

[7] = test system: Staphylococcus aureus CIP 65.6; experiment: as above; conditions: CIP65, 5 x 10^5 CFU/mL, 18 hours incubation
Procedure: as §1

[8] = test system: Staphylococcus epidermidis CIP 103627; experiment: as above; conditions: CIP103627, 5 x 10^5 CFU/mL, 18 hours incubation
Procedure: as §1

[9] = test system: Staphylococcus epidermidis CIP 81.55; experiment: as above; conditions: CIP81, 5 x 10^5 CFU/mL, 18 hours incubation
Procedure: as §1

[10] = test system: Staphylococcus aureus (SA-1199B, NorA); experiment: Other MIC determination, microdilution method (CLSI M07-A9) with modifications; conditions: 18 h
Outline: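 Broth microdilution per CLSI M07-A9 with modifications, in Mueller Hinton broth at 10^6 CFU/ml final inoculum. Plates were incubated 18h at 37 °C in ambient air. MIC was the lowest compound concentration giving complete visual growth inhibition, confirmed at 630 nm when unclear.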

[11] = test system: Staphylococcus arlettae (CHUG-Sarl1); experiment: as above; conditions: clinical strain
Procedure: (§2) The microdilution method recommended by the Clinical and Laboratory Standard Institute [M07-A9, Vol.32, N°2] was used with the following modifications.
(§3) Bacterial inocula were prepared in Mueller Hinton broth (MH2, BioMérieux, Marcy L'Etoile, France). They were dispensed in 96 well microtiter plates (10^6 CFU/ml of final inoculum, 192 µL per well).
(§4) To avoid cross-contaminations in microtiter plates, one row was left blank between each strain tested. Microplates were incubated for 18h at 37 °C in ambient air. Then MICs were read visually and, in case of visual reading difficulties, confirmed using a spectrophotometer at a wavelength of 630 nm (BioTek® EL808 Absorbance Microplate Reader). MICs corresponded to the minimum pyrrolic compound concentrations that allowed complete visual growth inhibition of bacteria. Drug-free cultures served as growth controls.
(§5) We used four Staphylococcus aureus strains. Two reference strains were provided by the French reference center for Staphylococcus spp. (Lyon, France), including one methicillin-susceptible (MSSA 476) and one methicillin-resistant (MRSA 252) S. aureus strains. The two remaining S. aureus strains were purchased from the CRBIP (Centre de Ressources Biologiques de l'Institut Pasteur): a vancomycin-intermediate strain (ATCC 106414) and a S. aureus strain (SA-1199B) resistant to fluoroquinolones due to overexpression of the NorA multidrug efflux pump. Coagulase-negative Staphylococcus strains included three reference strains purchased from CRBIP: a methicillin-susceptible S. epidermidis strain (ATCC 12228), a methicillin-resistant S. epidermidis strain (ATCC 49461), and a methicillin-susceptible S. sciuri strain (ATCC 29061). We also used 37 clinical strains belonging to the following coagulase-negative Staphylococcus species: S. arlettae (two strains), S. capitis (nine strains), S. epidermidis (one strain), S. haemolyticus (six strains), S. hominis (eight strains), S. lugdunensis (one strain), S. massiliensis (one strain), S. pettenkoferi (two strains), S. saprophyticus (two strains), S. simulans (one strain), and S. warneri (four strains) . Identification of the clinical strains was first obtained using VITEK® 2 System (Biomérieux) and confirmed by amplification and sequencing of the tuf gene (Reference: Bergeron, M., O. Dauwalder, M. Gouy, A.-M. Freydiere, M. Bes, H. Meugnier, Y. Benito, J. Etienne, G. Lina, F. Vandenesch, and S. Boisset. Species identification of staphylococci by amplification and sequencing of the tuf gene compared to the gap gene and by matrix-assisted laser desorption ionization time-of-flight mass spectrometry, Eur. J. Clin. Microbial. Infect. Dis. 2011, 30, 343-354).
(§6) The activity of the pyrrolic compounds 3c and 3i was further tested against 32 clinical strains belonging to 11 coagulase-negative Staphylococcus species.

[12] = test system: Staphylococcus capitis (CHUG-Scapi4); experiment: as above; conditions: clinical strain
Procedure: as §2, §3, §4, §5, §6

[13] = test system: Staphylococcus capitis (CHUG-Scapi7); experiment: as above; conditions: clinical strain
Procedure: as §2, §3, §4, §5, §6

[14] = test system: Staphylococcus haemolyticus (CHUG-Shae2); experiment: as above
Procedure: as §2, §3, §4, §5, §6

[15] = test system: Staphylococcus haemolyticus (CHUG-Shae3); experiment: as above
Procedure: as §2, §3, §4, §5, §6

[16] = test system: Staphylococcus hominis (CHUG-Shom4); experiment: as above; conditions: clinical strain
Procedure: as §2, §3, §4, §5, §6

[17] = test system: Staphylococcus hominis (CHUG-Shom6); experiment: as above; conditions: clinical strain
Procedure: as §2, §3, §4, §5, §6

[18] = test system: Staphylococcus lugdunensis (CHUG-Slug1); experiment: as above; conditions: clinical strain
Procedure: as §2, §3, §4, §5, §6

[19] = test system: Staphylococcus saprophyticus (CHUG-Ssap2); experiment: as above; conditions: clinical strain
Procedure: as §2, §3, §4, §5, §6

SMILES | MIC [1] [µg/mL] | MIC [2] [µg/mL] | MIC [3] [µg/mL] | MIC [4] [µg/mL] | MIC [5] [µg/mL] | MIC [6] [µg/mL] | MIC [7] [µg/mL] | MIC [8] [µg/mL] | MIC [9] [µg/mL] | MIC [10] [µg/mL] | MIC [11] [µg/mL] | MIC [12] [µg/mL] | MIC [13] [µg/mL] | MIC [14] [µg/mL] | MIC [15] [µg/mL] | MIC [16] [µg/mL] | MIC [17] [µg/mL] | MIC [18] [µg/mL] | MIC [19] [µg/mL]
CC(=O)c1c(C)[nH]c(C(c2cc3ccccc3s2)c2[nH]c(C)c(C(C)=O)c2C)c1C [3f] | 2 (≈ 4.78 µM) | 8 (≈ 19.1 µM) | 2 (≈ 4.78 µM) | 2 (≈ 4.78 µM) | 2 (≈ 4.78 µM) | 2 (≈ 4.78 µM) | 2 (≈ 4.78 µM) | > 128 | > 128 | 2 (≈ 4.78 µM) | – | – | – | – | – | – | – | – | –
CC(=O)c1c(C)[nH]c(C(c2ccc(F)cc2)c2[nH]c(C)c(C(C)=O)c2C)c1C [3g] | – | – | – | – | – | – | – | – | – | 8 (≈ 21 µM) | – | – | – | – | – | – | – | – | –
CC(=O)c1c(C)[nH]c(C(c2[nH]c(C)c(C(C)=O)c2C)c2cccc3ccccc23)c1C [3h] | 1 (≈ 2.42 µM) | 1 (≈ 2.42 µM) | 1 (≈ 2.42 µM) | 8 (≈ 19.4 µM) | 1 (≈ 2.42 µM) | 1 (≈ 2.42 µM) | 1 (≈ 2.42 µM) | > 128 | > 128 | 2 (≈ 4.85 µM) | – | – | – | – | – | – | – | – | –
CC(=O)c1c(C)[nH]c(C(c2ccc(Cl)cc2)c2[nH]c(C)c(C(C)=O)c2C)c1C [3c] | 2 (≈ 5.04 µM) | 4 (≈ 10.1 µM) | 2 (≈ 5.04 µM) | 4 (≈ 10.1 µM) | 8 (≈ 20.2 µM) | 2 (≈ 5.04 µM) | 4 (≈ 10.1 µM) | > 128 | > 128 | – | > 32 | 4 (≈ 10.1 µM) | 8 (≈ 20.2 µM) | > 32 | 16 (≈ 40.3 µM) | > 32 | > 32 | > 32 | > 32
CC(=O)c1c(C)[nH]c(C(c2[nH]c(C)c(C(C)=O)c2C)c2csc3ccccc23)c1C [3i] | 0.5 (≈ 1.19 µM) | 0.5 (≈ 1.19 µM) | 0.5 (≈ 1.19 µM) | 1 (≈ 2.39 µM) | 0.5 (≈ 1.19 µM) | 1 (≈ 2.39 µM) | 0.5 (≈ 1.19 µM) | > 128 | > 128 | 1 (≈ 2.39 µM) | > 16 | 1 (≈ 2.39 µM) | 1 (≈ 2.39 µM) | 8 (≈ 19.1 µM) | 4 (≈ 9.56 µM) | 16 (≈ 38.2 µM) | > 32 | > 16 | 8 (≈ 19.1 µM)
COC(=O)c1cccc(C(c2[nH]c(C)c(C(C)=O)c2C)c2[nH]c(C)c(C(C)=O)c2C)c1 [3j, Methyl-3-[bis(4-acetyl-3,5-dimethyl-1H-pyrrol-2-yl)methyl]benzoate] | – | – | – | – | – | – | – | – | – | 8 (≈ 19 µM) | – | – | – | – | – | – | – | – | –
CC(=O)c1c(C)[nH]c(C(c2cc3ccccc3o2)c2[nH]c(C)c(C(C)=O)c2C)c1C [3e] | 4 (≈ 9.94 µM) | 4 (≈ 9.94 µM) | 4 (≈ 9.94 µM) | 4 (≈ 9.94 µM) | 4 (≈ 9.94 µM) | 2 (≈ 4.97 µM) | 4 (≈ 9.94 µM) | > 128 | > 128 | – | – | – | – | – | – | – | – | – | –
